The term IC50 denotes the concentration that gives 50% inhibition.

This is an account of results in patent US20170275298A1, “INHIBITORS OF THE RENAL OUTER MEDULLARY POTASSIUM CHANNEL” (Merck Sharp & Dohme Corp., priority 2014, published 2017).

The test deals with T1, hROMK (hKir1.1) (Homo sapiens, UniProt P48048).
T1 construct: expressed in transfected cells
T1 sequence (P48048 1-391): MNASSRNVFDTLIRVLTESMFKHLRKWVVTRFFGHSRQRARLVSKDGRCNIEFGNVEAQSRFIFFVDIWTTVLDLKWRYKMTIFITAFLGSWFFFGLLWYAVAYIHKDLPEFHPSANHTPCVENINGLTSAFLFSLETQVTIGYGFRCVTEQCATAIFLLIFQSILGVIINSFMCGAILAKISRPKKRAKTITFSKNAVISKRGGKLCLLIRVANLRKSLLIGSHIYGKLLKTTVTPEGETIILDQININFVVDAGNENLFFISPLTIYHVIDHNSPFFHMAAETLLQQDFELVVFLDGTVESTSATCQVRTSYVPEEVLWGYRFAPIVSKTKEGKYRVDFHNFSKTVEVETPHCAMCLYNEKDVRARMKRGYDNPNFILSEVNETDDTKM
The experiment in a line: Thallium Flux Assay (ROMK channel functional thallium flux assay). The format is cell-based. The settings on record: HEK293 cells stably expressing hROMK (hKir1.1); FluxOR thallium flux, FLIPR-Tetra, 30 min compound incubation; read-out: ROMK TI IC50. Here is the method: The following Thallium Flux Assay was performed on each of the final product compounds in the Examples.
HEK293 cells stably expressing hROMK (hKir1.1) were grown at 37° C. in a 10% CO2 humidified incubator in complete growth media: Dulbecco's Modified Eagle Medium supplemented with non-essential amino acids, Penicillin/Streptomycin/Glutamine, G418 and FBS. At >80% confluency, the media was aspirated from the flask and rinsed with 10 mL calcium/magnesium-free PBS. […] To dislodge the cell, the side of the flask was gently banged with one's hand. The cells completely titrated and then the cells were transferred to 25 mL complete media, centrifuged at 1,500 rpm for 6 min followed by resuspension in complete growth media and determine cell concentration. […] Under ideal growth conditions and appropriate tissue culture practices, this cell line is stable for 40-45 passages.
• FluxOR™ Reagent (Component A) • FluxOR™ Assay Buffer (Component B)—10× Concentrate • PowerLoad™ Concentrate (Component C)—100× Concentrate • Probenecid (Component D)—Lyophilized sample is kept at −20° C. Water soluble, 100× after solubilization in 1 mL water. […] Store at 4° C. • Thallium sulfate (Tl2SO4) Concentrate (Component G)—50 mM in water. Store at 4° C. • DMSO (dimethyl sulfoxide, Component H)—1 mL (100%)
Can be stored at room temperature • Stimulant Buffer (prepared at 5× final concentration in 1×FluxOR™ Chloride-Free Buffer): 7.5 mM thallium sulfate and 0.75 mM potassium sulfate (to give a final assay concentration of 3 mM Thallium/0.3 mM potassium). Store at 4° C. when not in use. If kept sterile, this solution is good for months.
The ROMK channel functional thallium flux assay was performed in 384 wells, using the FLIPR-Tetra instrument. HEK-hKir1.1 cells were seeded in Poly-D-Lysine microplates and kept in a 37° C.-10% CO2 incubator overnight. On the day of the experiment, the growth media was replaced with the FluxOR™ reagent loading buffer and incubated, protected from light, at ambient temperature (23-25° C.) for 90 min. The loading buffer was replaced with assay buffer±test compound followed by 30 min incubation at ambient temperature, where the thallium/potassium stimulant was added to the microplate.
1. Seed HEK-hKir1.1 cells (50 μl at 20,000 cells/well) in 384-well PDL coated Microplates 2. Allow cells to adhere overnight in humidified 37° C./10% CO2 incubator 3. Completely remove cell growth media from microplate and replace with 25 μl loading buffer 4. Incubate Microplate at room temperature, protected form light, for 90 min 5. Remove loading buffer and replace with 25 μl 1× Assay Buffer±test compound. 6. Incubate microplate at room temperature, protected from light, for 30 min 7. […] Excitation=400 nm, Emission=460 & 580 nm. Collect data for ˜10 min.
The fluorescence intensity of wells containing 3 μM of a standard control ROMK inhibitor of the present invention was used to define the ROMK-sensitive component of thallium flux. Fluorescence in the presence of test compounds was normalized to control values to provide % fluorescence change.

Consider `Cc1c([C@H](O)CN2CCC3(CC2)CCN(c2ccc(=O)n(C)n2)C3=O)ccc2c1COC2=O` (single isomer, unassigned) [Example 57], for which the concentration for half-maximal inhibition (IC50) amounted to 252 nM.

Regarding `[2H]C([2H])(N1CCC2(CCN(c3ccc(=O)n(C)n3)C2=O)CC1)[C@]([2H])(O)c1ccc2c(c1C)COC2=O` (single isomer, unassigned) [Example 58], the IC50 stood at 36 nM.

For the molecule `[2H]C([2H])(N1CCC2(CCN(c3ccc(=O)n(C)n3)C2=O)CC1)[C@@]([2H])(O)c1ccc2c(c1C)COC2=O` (single isomer, unassigned) [Example 59], the half-maximal inhibitory concentration (IC50) was 462 nM.

As for `Cc1nsc(N2CCC3(CCN(C[C@H](O)c4ccc5c(c4C)COC5=O)CC3)C2)n1` [Example 1, 5-{(1R)-1-hydroxy-2-[2-(3-methyl-1,2,4-thiadiazol-5-yl)-2,8-diazaspiro[4.5]dec-8-yl]ethyl}-4-methyl-2-benzofuran-1(3H)-one], the IC50 worked out at 251 nM.

For the molecule `Cc1c([C@@H](O)CN2CCC3(CC2)CCN(c2nc(Cl)cs2)C3)ccc2c1COC2=O` [Example 2, 5-{(1R)-2-[2-(4-chloro-1,3-thiazol-2-yl)-2,8-diazaspiro[4.5]dec-8-yl]-1-hydroxyethyl}-4-methyl-2-benzofuran-1(3H)-one], the IC50 came out at 935 nM.

Turning to `CC(=O)OCc1nsc(N2CCC3(CCN(C[C@H](O)c4ccc5c(c4C)COC5=O)CC3)C2)n1` [Example 3, (5-{8-[(2R)-2-hydroxy-2-(4-methyl-1-oxo-1,3-dihydro-2-benzofuran-5-yl)ethyl]-2,8-diazaspiro[4.5]dec-2-yl}-1,2,4-thiadiazol-3-yl)methyl acetate], the IC50 came to 100 nM.

Consider `Cc1c([C@@H](O)CN2CCC3(CC2)CCN(c2nsc(Cl)n2)C3)ccc2c1COC2=O` [Example 4, (R)-5-(2-(2-(5-chloro-1,2,4-thiadiazol-3-yl)-2,8-diazaspiro[4.5]decan-8-yl)-1-hydroxyethyl)-4-methylisobenzofuran-1(3H)-one], for which the IC50 turned out to be 45.1 nM.

Turning to `Cc1c([C@@H](O)CN2CCC3(CC2)CCN(c2nc(Cl)ns2)C3)ccc2c1COC2=O` [Example 5, (R)-5-(2-(2-(3-chloro-1,2,4-thiadiazol-5-yl)-2,8-diazaspiro[4.5]decan-8-yl)-1-hydroxyethyl)-4-methylisobenzofuran-1(3H)-one], the IC50 turned out to be 64.8 nM.

Take `COc1ccc(N2CCC3(CCN(C[C@H](O)c4cc(OC)c(C#N)cn4)CC3)C2)nn1` [Example 6, (S)-6-(1-hydroxy-2-(2-(6-methoxypyridazin-3-yl)-2,8-diazaspiro[4.5]decan-8-yl)ethyl)-4-methoxynicotinonitrile]: the IC50 was determined as 476 nM.

As to `Cc1c([C@@H](O)CN2CCC3(CC2)CCN(c2ccns2)C3)ccc2c1COC2=O` [Example 7, (R)-5-(1-hydroxy-2-(2-(isothiazol-5-yl)-2,8-diazaspiro[4.5]decan-8-yl)ethyl)-4-methylisobenzofuran-1(3H)-one], the IC50 is 149 nM.

On to `Cc1c([C@@H](O)CN2CCC3(CC2)CCN(c2ncns2)C3)ccc2c1COC2=O` [Example 8, (R)-5-(2-(2-(1,2,4-thiadiazol-5-yl)-2,8-diazaspiro[4.5]decan-8-yl)-1-hydroxyethyl)-4-methylisobenzofuran-1(3H)-one], for which the IC50 came to 526 nM.

As for `Cc1c([C@@H](O)CN2CCC3(CC2)CCN(c2cc(C(F)(F)F)ncn2)C3)ccc2c1COC2=O` [Example 9, (R)-5-(1-hydroxy-2-(2-(6-(trifluoromethyl)pyrimidin-4-yl)-2,8-diazaspiro[4.5]decan-8-yl)ethyl)-4-methylisobenzofuran-1(3H)-one], the IC50 came to 173 nM.

Take `COc1cc(N2CCC3(CCN(C[C@H](O)c4ccc5c(c4C)COC5=O)CC3)C2)nc(OC)n1` [Example 10, (R)-5-(2-(2-(2,6-dimethoxypyrimidin-4-yl)-2,8-diazaspiro[4.5]decan-8-yl)-1-hydroxyethyl)-4-methylisobenzofuran-1(3H)-one]: the IC50 was 725 nM.

On to `Cc1c([C@@H](O)CN2CCC3(CC2)CCN(c2ccc(=O)n(C)n2)C3)ccc2c1COC2=O` [Example 11, (R)-6-(8-(2-hydroxy-2-(4-methyl-1-oxo-1,3-dihydroisobenzofuran-5-yl)ethyl)-2,8-diazaspiro[4.5]decan-2-yl)-2-methylpyridazin-3(2H)-one], for which the IC50 amounted to 67.6 nM.

Regarding `COc1cc(N2CCC3(CCN(C[C@H](O)c4ccc5c(c4C)COC5=O)CC3)C2)ccn1` [Example 12, (R)-5-(1-hydroxy-2-(2-(2-methoxypyridin-4-yl)-2,8-diazaspiro[4.5]decan-8-yl)ethyl)-4-methylisobenzofuran-1(3H)-one], the IC50 amounted to 962 nM.

On to `COc1nsc(N2CCC3(CCN(C[C@H](O)c4ccc5c(c4C)COC5=O)CC3)C2)n1` [Example 13, (R)-5-(1-hydroxy-2-(2-(3-methoxy-1,2,4-thiadiazol-5-yl)-2,8-diazaspiro[4.5]decan-8-yl)ethyl)-4-methylisobenzofuran-1(3H)-one], for which the IC50 was found to be 336 nM.

In the case of `COc1nccc(N2CCC3(CCN(C[C@H](O)c4ccc5c(c4C)COC5=O)CC3)C2)n1` [Example 14, (R)-5-(1-hydroxy-2-(2-(2-methoxypyrimidin-4-yl)-2,8-diazaspiro[4.5]decan-8-yl)ethyl)-4-methylisobenzofuran-1(3H)-one], the IC50 was determined as 420 nM.

`COc1ncc(N2CCC3(CCN(C[C@H](O)c4ccc5c(c4C)COC5=O)CC3)C2)cn1` [Example 15, (R)-5-(1-hydroxy-2-(2-(2-methoxypyrimidin-5-yl)-2,8-diazaspiro[4.5]decan-8-yl)ethyl)-4-methylisobenzofuran-1(3H)-one]: the concentration for half-maximal inhibition (IC50) was 284 nM.

`Cc1c([C@@H](O)CN2CCC3(CC2)CN(c2ccns2)C3)ccc2c1COC2=O` [Example 16]: the IC50 amounted to 418 nM.

With `Cc1c([C@@H](O)CN2CCC3(CC2)CN(c2ccc(=O)n(C)n2)CCO3)ccc2c1COC2=O` [Example 17, (R)-6-(9-(2-hydroxy-2-(4-methyl-1-oxo-1,3-dihydroisobenzofuran-5-yl)ethyl)-1-oxa-4,9-diazaspiro[5.5]undecan-4-yl)-2-methylpyridazin-3(2H)-one], the IC50 was determined as 88.3 nM.

As for `Cc1nc(-n2cnnn2)ccc1[C@@H](O)CN1CCC2(CC1)CN(c1ccc(=O)n(C)n1)CCO2` [Example 18, (R)-6-(9-(2-hydroxy-2-(2-methyl-6-(1H-tetrazol-1-yl)pyridin-3-yl)ethyl)-1-oxa-4,9-diazaspiro[5.5]undecan-4-yl)-2-methylpyridazin-3(2H)-one], the IC50 turned out to be 376 nM.

In the case of `Cc1cc(-n2cnnn2)ccc1[C@@H](O)CN1CCC2(CC1)CN(c1ccc(=O)n(C)n1)CCO2` [Example 19, (R)-6-(9-(2-hydroxy-2-(2-methyl-4-(1H-tetrazol-1-yl)phenyl)ethyl)-1-oxa-4,9-diazaspiro[5.5]undecan-4-yl)-2-methylpyridazin-3(2H)-one], the IC50 was determined as 540 nM.

Take `Cc1c(CCN2CCC3(CC2)CCN(c2ccc(=O)n(C)n2)C3=O)ccc2c1COC2=O` [Example 20, 8-(2-(4-methyl-1-oxo-1,3-dihydroisobenzofuran-5-yl)ethyl)-2-(1-methyl-6-oxo-1,6-dihydropyridazin-3-yl)-2,8-diazaspiro[4.5]decan-1-one]: the IC50 stood at 51.2 nM.

`Cn1nc(N2CCC3(CCN(CCc4ccc(-n5cnnn5)nn4)CC3)C2=O)ccc1=O` [Example 21, 8-(2-(6-(1H-tetrazol-1-yl)pyridazin-3-yl)ethyl)-2-(1-methyl-6-oxo-1,6-dihydropyridazin-3-yl)-2,8-diazaspiro[4.5]decan-1-one]: the IC50 came out at 568 nM.
